# Data as given in publication PMC3633906, “A High Throughput Screen for RGS Proteins Using Steady State Monitoring of Free Phosphate Formation” (PLoS ONE, 2013).
# Counter-ions that a name gives are not always drawn. Like-named read-outs stand apart in the source and are kept apart here.
# How the values were obtained:
# RGS4(WT) = target: T1, RGS4(WT) (Rattus norvegicus, UniProt P49799); assay: Malachite green steady-state GAP assay, RGS4(WT); type: biochemical; details: for Mean absorbance at 642 nm, positive control: 10 µM final compound
# T1 construct: fused to the N-terminus of an RGS4 construct containing amino acids 51–205; 10× His tag (N, cleaved yes); made in house; host or cells: E. coli BL21-DE3
# T1 sequence (P49799 51-205): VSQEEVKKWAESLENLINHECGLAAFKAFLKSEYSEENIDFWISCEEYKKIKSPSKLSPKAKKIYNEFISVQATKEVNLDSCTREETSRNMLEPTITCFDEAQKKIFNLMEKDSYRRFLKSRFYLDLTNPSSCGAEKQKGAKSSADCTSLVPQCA
# Method: Stock solutions of each of the 3 components of the developing solution were prepared, which are stable for long-term storage. Malachite solution was prepared by first diluting concentrated sulfuric acid 1∶5 in distilled water. Once the solution cooled to 25°C, malachite solution was prepared by dissolving 0.44 g of malachite green oxalate (Alfa Aesar; Ward Hill, MA) in 360 mL diluted acid and stored at 25°C. Molybdate solution, containing 7.5% ammonium molybdate tetrahydrate (Alfa Aesar; Ward Hill, MA), was prepared in distilled water and stored at 4°C. Tween-20 solution, used to maintain solubility of the phosphate-molybdate-malachite complex, was prepared as 11% (v/v) Tween-20 in distilled water. On the day of use, 2.5 mL molybdate solution and 0.2 mL Tween-20 solution were added to 10 mL of malachite solution and mixed quickly to avoid precipitation of malachite. The final ratio of the Developing Solution (DS) was 50∶12.5∶1 (malachite:molybdate:Tween-20). The peak absorbance was determined by a 2 nm step wavelength scan, using 10 µM Na3PO4 at pH 7.5 as the negative control.
# The malachite green assay involves 5 components, with a 1 min spin at 100×g between each addition. For time-course experiments, the first component was 10 µL Malachite Green Assay Buffer (MGB; 50 mM HEPES at pH 7.5, 100 mM NaCl, 5 mM EDTA, 10 mM MgCl2, 0.01% lubrol) into a clear 384-well plate (ThermoFisher Scientific; Waltham, MA) using a MultiDrop dispenser (PerkinElmer; Waltham, MA). The second component dispensed was 10 µL of a 4× stock of RGS4, typically 200 nM to 1.6 µM with the target final concentration of 50 nM to 400 nM, diluted in MGB. After a 30 min incubation, 10 µL of the third component, 4× stock of Gαi diluted in MGB, was dispensed (typically between 4 µM and 80 µM with a desired final concentration 1 µM to 20 µM). After a minimum of 5 min incubation, 10 µL of the fourth component, 4× GTP diluted in MGB, was added at 10 minute intervals from 1–110 minutes. The 0 min time point was excluded due to amount of time required to proceed from GTP addition to quenching with DS. 4× GTP concentrations varied between 0.2 mM and 2.4 mM, with a target final concentration of 50 µM to 600 µM. To terminate the reaction, 10 µL of DS was added to each well using a Microlab Star liquid handling robot (Hamilton Robotics; Reno, NV), to achieve a final ratio 4∶1 (sample:developing solution). Following the spin, the plate was incubated for 25 min before being read at 642 nm for absorbance using an EnVision plate reader (PerkinElmer; Waltham, MA). RGS8 was evaluated similarly to as described for RGS4, with 4× stock concentrations from 20 nM and 800 nM. For each time-course, corresponding GTP only wells were included to account for spontaneous hydrolysis of GTP over time.
# (§1) Malachite green compound activity and Z-factor analysis conducted in 384-well plates utilized optimized parameters as discerned from the time-course experiments. 10 µL of 4× compound or MGB was dispensed into appropriate wells. For single point assay, 160 µM compound was used, and for dose-response assays a series of ½ log dilutions from 100 µM final to 316pM final was used. 10 µL of the optimized 4× RGS4 concentration, 0.8 µM in MGB, was dispensed into all wells. After a spin down at 100×g for 1 min, the assay plate was incubated at 25°C for 30 min. 10 µL of the optimized Gαi concentration, 20 µM in MGB, was dispensed to each well and incubated at 25°C for 5 min. 10 µL of the optimized 4× GTP, 600 µM in MGB, was then added to the samples. After spinning the samples down at 100×g for 1 min, the samples were incubated at 25°C for 75 min. The samples were then stamped with 10 µL of DS and incubated for 25 min before reading absorbance at 642 nm.
# 1536-well Z-factor analysis and compound library screen were accomplished largely as described for 384-well plates. Initial screen and Z-factor determination was performed in a final concentration of 5.5% dimethylsulfoxide. […]
# RGS4(Δ7) mutant = RGS4(Δ7) mutant (Rattus norvegicus, UniProt P49799, C132A/C148A/C183A/C197A/C204A/C71A/C95A); assay: Malachite green steady-state GAP assay, cysteine-null RGS4(Δ7) counter screen; type: biochemical
# Excerpt: Rat RGS4, sharing 97% sequence identity with human RGS4, and the cysteine to alanine mutant were expressed as fusion proteins of maltose binding protein (MBP), a 10× His tag, and a TEV protease recognition site fused to the N-terminus of an RGS4 construct containing amino acids 51–205, in the vector pMALC2H10T in BL21-DE3 E. coli (Stratagene; Santa Clara, CA). The single cysteine-null Δ51-RGS4 construct was generated by site-directed mutagenesis as described previously. Expression and purification were performed as described previously. Purified protein was incubated with TEV protease at a molar ratio of 10∶1(fusion protein:TEV protease) overnight at 4°C. The cleaved Δ51-RGS4 was then isolated by purification over an ANX column (GE Healthcare; Fairfield, CT) in 50 mM HEPES at pH 6.8 and 50 mM NaCl. The flow through, containing the ∼99% Δ51-RGS4 as determined by SDS-PAGE gel, was then collected and concentrated using a YM-10 centrifugal concentrator (Millipore; Billerica, MA). The concentration of Δ51-RGS4 was calculated based on the absorbance at 280 nm utilizing a Take-3 plate (Biotek; Winnoski, VT) in a Synergy 2 plate reader (Biotek; Winnoski, VT).
# as §1
# Data was analyzed using Prism analysis software (Graphpad Software; La Jolla, CA). Initial malachite green assay optimization was accomplished by comparing the fit of both straight line and hyperbolic functions. The fit that mostly closely resembled the data was used to represent the data. IC50 values for each compound were determined by fitting the data to a sigmoidal curve, which was used to calculate the IC50 value.
# [1] = design: method as in PMID 20700722, PMID 21088503; details: rodent models; cited from earlier work
# [2] = malachite green assay, RGS4(Δ7) mutant, concentration-response, read-out: IC50 against RGS4(Δ7)
# Chain of RGS4(Δ7) mutant (P49799 51-205 C71A/C95A/C132A/C148A/C183A/C197A/C204A limits assumed): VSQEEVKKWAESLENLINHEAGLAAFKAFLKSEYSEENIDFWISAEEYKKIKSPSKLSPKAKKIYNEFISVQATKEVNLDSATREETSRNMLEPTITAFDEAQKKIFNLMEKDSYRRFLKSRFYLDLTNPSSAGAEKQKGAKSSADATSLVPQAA
Structure (SMILES),IC50 (RGS4(Δ7) mutant; [2]) [µM],IC50 (RGS4(Δ7) mutant) [µM],IC50 (RGS4(WT)) [µM],Inhibition of RGS4(Δ7) (in words) (RGS4(Δ7) mutant; malachite green assay),Inhibition of RGS4 (in words) (RGS4(WT); malachite green assay),other results
"Cc1ccc(-n2sc(=O)n(Cc3ccc(F)cc3)c2=O)cc1 [CCG-50014, reference compound]",,,,,,"Mean absorbance at 642 nm, positive control (RGS4(WT); 384-well plate, 192 wells, negative control (buffer) mean 1.74): 0.92; Mean absorbance at 642 nm, positive control (RGS4(WT); 1536-well plate, 5.5% DMSO, 128 wells, negative control (buffer) mean 0.67): 0.30"
"C[n+]1cc2c3c(ccc2c2ccc4cc5c(cc4c21)OCO5)OCO3 [UI-5, sanguinarium sulfate]",454,,,,,"IC50 (RGS4(WT); malachite green assay, 200 nM RGS4, concentration-response, read-out: IC50 against RGS4(WT)): 126 µM"
"CC1=C(O)C(=O)C=C2C1=CC=C1[C@@]2(C)CC[C@@]2(C)[C@@H]3C[C@](C)(C(=O)O)CC[C@]3(C)CC[C@]12C [UI-1590, celastrol]",,88,0.724,,,Toxicity in vivo [1]: minor toxicity
"CC(C)=CCC[C@]1(C)C=Cc2c(O)c3c(c(CC=C(C)C)c2O1)O[C@]12C(=C[C@@H]4C[C@H]1C(C)(C)O[C@@]2(C/C=C(/C)C(=O)O)C4=O)C3=O [UI-1907, gambogic acid]",,51,16,weak inhibitors,weak inhibitors,
"CC(=O)Oc1c2c(c(CC=C(C)C)c3c1C(=O)C1=C[C@@H]4CC5C(C)(C)OC(C/C=C(\C)C(=O)O)(C4=O)[C@@]15O3)OC(C)(CCC=C(C)C)C=C2 (some centres unmarked) [UI-2034, acetyl-isogambogic acid]",181,,,weak inhibitors,weak inhibitors,
